Test results taken from PMC11111955, “Safety and efficacy evaluation of halicin as an effective drug for inhibiting intestinal infections” (Frontiers in Pharmacology, 2024).
In brackets after ≈: the same amount, converted by molar mass. Read-outs that look alike come from different tables or passages of the source.

Assays:
S. aureus (ATCC 29213) [1] = test: Minimum inhibitory concentration (MIC); assay type: cell-based, Staphylococcus aureus
Method: (§1) The test strains were inoculated on the corresponding solid medium and incubated overnight at 37°C. A single colony was picked from the medium and inoculated into Luria Broth (LB), and then incubated overnight at 37°C with shaking at 220 rpm. The bacterial suspension was diluted to 0.5 McFarland turbidity with Mueller Hinton broth (MHB), and then dilute 100 times for later use. Halicin was added to the 96-well plate, and diluted it to concentrations of 128, 64, 32, 16, 8, 4, 2, 1, 0.5, 0.25, 0.125, and 0 μg/mL by gradient. The 96-well plate was incubated at 37°C for 16 h, followed by observing and recording the results. The MIC was determined as the concentration at which there was no visible colony growth was observed.

[2] = tested on: Salmonella typhimurium strains TA97, TA98, TA100, and WP2uvrApKM101; test: Ames test, all strains as summarised in the text
[3] = tested on: Klebsiella pneumoniae (ATCC 4352); test: Growth kinetics curve; assay type: cell-based; details: 1/2 × to 4 × MIC
WP2uvApKM101 = test: Ames test; assay type: cell-based, Escherichia coli
Method: (§2) The experiments were performed in triplicate.

TA98 = test: Ames test; assay type: cell-based, Salmonella typhimurium
Method: as §2

TA97a = test: Ames test; assay type: cell-based, Salmonella typhimurium
Method: as §2

TA100 = test: Ames test; assay type: cell-based, Salmonella typhimurium
Method: as §2

[4] = tested on: R. anatipestifer (ATCC 11845); test: Minimum inhibitory concentration (MIC); assay type: cell-based, Riemerella anatipestifer
[5] = tested on: P. aeruginosa (ATCC 27853); test: Minimum inhibitory concentration (MIC); assay type: cell-based, Pseudomonas aeruginosa
Method: as §1

[6] = tested on: C. perfringens (ATCC 13124); assay type: cell-based, Clostridium perfringens
Salmonella (CVCC 3377) = test: Minimum inhibitory concentration (MIC); assay type: cell-based
mouse bone marrow cells = details: for Chromosome aberration (%) / Number of cells with chromosome aberration: ICR mice, oral; for Number of cells with chromosome aberration: of 5 × 100 cells at metaphase
[7] = tested on: A. baumannii (ATCC 19606); test: Minimum inhibitory concentration (MIC); assay type: cell-based, Acinetobacter baumannii
Method: as §1

E. faecalis (ATCC 29212) = test: Minimum inhibitory concentration (MIC); assay type: cell-based, Enterococcus faecalis
Method: as §1

[8] = tested on: clinical isolates of E. coli strains; test: MIC against clinical isolates; assay type: cell-based, Escherichia coli
S. aureus (ATCC 29213) [9] = test: Multipassage resistance study (continuous induction); details: after 90 days of continuous exposure to 0.5 × MIC
ICR mice = test: Acute oral toxicity test in ICR mice
[10] = Pharmacokinetics of halicin in rat (oral)

## Nc1nnc(Sc2ncc([N+](=O)[O-])s2)s1 [halicin]
S. aureus (ATCC 29213) [1]
  MIC: 8 µg/mL (≈ 30.6 µM)
[2]; 22.5 μg/plate, due to antibacterial effect
  bacterial counts of the four strains: significantly decreased
[2]; concentrations below 11.2 μg/plate, with or without S9
  mutagenicity in the Ames test: non-mutagenic
[3]
  growth in growth kinetics curve assay: completely inhibited
WP2uvApKM101; WP2uvApKM101, +S9, 5.6 μg/plate
  Ames test bacterial counts: 183 ± 15.6
WP2uvApKM101; WP2uvApKM101, +S9, 11.2 μg/plate
  Ames test bacterial counts: 168 ± 19.8
WP2uvApKM101; WP2uvApKM101, +S9, 22.5 μg/plate
  Ames test bacterial counts: 12 ± 5.7
WP2uvApKM101; WP2uvApKM101, +S9, 45 μg/plate
  Ames test bacterial counts: 0 ± 0
WP2uvApKM101; WP2uvApKM101, -S9, 5.6 μg/plate
  Ames test bacterial counts: 169 ± 15.6
WP2uvApKM101; WP2uvApKM101, -S9, 11.2 μg/plate
  Ames test bacterial counts: 135 ± 22.6
WP2uvApKM101; WP2uvApKM101, -S9, 22.5 μg/plate
  Ames test bacterial counts: 75 ± 8.5
WP2uvApKM101; WP2uvApKM101, -S9, 45 μg/plate
  Ames test bacterial counts: 0 ± 0
TA98; TA98, +S9, 5.6 μg/plate
  Ames test bacterial counts: 30 ± 12.7
TA98; TA98, +S9, 11.2 μg/plate
  Ames test bacterial counts: 43 ± 8.5
TA98; TA98, +S9, 22.5 μg/plate
  Ames test bacterial counts: 53 ± 7.1
TA98; TA98, +S9, 45 μg/plate
  Ames test bacterial counts: 0 ± 0
TA98; TA98, -S9, 5.6 μg/plate
  Ames test bacterial counts: 27 ± 2.8
TA98; TA98, -S9, 11.2 μg/plate
  Ames test bacterial counts: 61 ± 14.1
TA98; TA98, -S9, 22.5 μg/plate
  Ames test bacterial counts: 55 ± 5.7
TA98; TA98, -S9, 45 μg/plate
  Ames test bacterial counts: 0 ± 0
TA97a; +S9, 5.6 μg/plate
  Ames test bacterial counts: 145 ± 5.7
TA97a; +S9, 11.2 μg/plate
  Ames test bacterial counts: 151 ± 11.3
TA97a; +S9, 22.5 μg/plate
  Ames test bacterial counts: 31 ± 8.5
TA97a; +S9, 45 μg/plate
  Ames test bacterial counts: 0 ± 0
TA97a; -S9, 5.6 μg/plate
  Ames test bacterial counts: 82 ± 14.1
TA97a; -S9, 11.2 μg/plate
  Ames test bacterial counts: 115 ± 8.5
TA97a; -S9, 22.5 μg/plate
  Ames test bacterial counts: 0 ± 0
TA97a; -S9, 45 μg/plate
  Ames test bacterial counts: 0 ± 0
TA100; TA100, +S9, 5.6 μg/plate
  Ames test bacterial counts: 171 ± 11.3
TA100; TA100, +S9, 11.2 μg/plate
  Ames test bacterial counts: 152 ± 12.7
TA100; TA100, +S9, 22.5 μg/plate
  Ames test bacterial counts: 0 ± 0
TA100; TA100, +S9, 45 μg/plate
  Ames test bacterial counts: 0 ± 0
TA100; TA100, -S9, 5.6 μg/plate
  Ames test bacterial counts: 121 ± 9.9
TA100; TA100, -S9, 11.2 μg/plate
  Ames test bacterial counts: 0 ± 0
TA100; TA100, -S9, 22.5 μg/plate
  Ames test bacterial counts: 0 ± 0
TA100; TA100, -S9, 45 μg/plate
  Ames test bacterial counts: 0 ± 0
[4]; R. anatipestife (ATCC 11845), second listing
  MIC: 8 µg/mL (≈ 30.6 µM)
[4]; R. anatipestifer (ATCC 11845), first listing
  MIC: 4 µg/mL (≈ 15.3 µM)
[5]
  MIC: 64 µg/mL (≈ 245 µM)
[6]
  MIC: 8 µg/mL (≈ 30.6 µM)
Salmonella (CVCC 3377)
  MIC: 8 µg/mL (≈ 30.6 µM)
Mouse bone marrow cells; 252.3 mg/kg to 1009.1 mg/kg, p > 0.05 vs negative control
  teratogenic effect on bone marrow cells: no significant teratogenic effect
Mouse bone marrow cells; High-does (1009.1) mg/kg
  Chromosome aberration (%): 1.4 ± 0.55%
  Number of cells with chromosome aberration: 7
Mouse bone marrow cells; Low-does (252.3) mg/kg
  Chromosome aberration (%): 1.4 ± 1.14%
  Number of cells with chromosome aberration: 7
Mouse bone marrow cells; Medium-does (504.6) mg/kg
  Chromosome aberration (%): 1.6 ± 0.89%
  Number of cells with chromosome aberration: 8
[7]
  MIC: 8 µg/mL (≈ 30.6 µM)
E. faecalis (ATCC 29212)
  MIC: 4 µg/mL (≈ 15.3 µM)
[8]
  MIC: 8 µg/mL (≈ 30.6 µM)
[8]; clinical isolate S015, Escherichia coli 1505
  MIC: 16 µg/mL (≈ 61.2 µM)
[8]; clinical isolate S016, Escherichia coli 2101
  MIC: 16 µg/mL (≈ 61.2 µM)
[8]; clinical isolate S017, Escherichia coli 1104
  MIC: 16 µg/mL (≈ 61.2 µM)
[8]; clinical isolate S018, Escherichia coli 1103
  MIC: 16 µg/mL (≈ 61.2 µM)
[8]; clinical isolate S019, Escherichia coli 1102
  MIC: 16 µg/mL (≈ 61.2 µM)
[8]; clinical isolate S020, Escherichia coli 1204
  MIC: 16 µg/mL (≈ 61.2 µM)
[8]; clinical isolate S021, Escherichia coli 1508
  MIC: 16 µg/mL (≈ 61.2 µM)
[8]; clinical isolate S022, Escherichia coli 1302
  MIC: 16 µg/mL (≈ 61.2 µM)
[8]; clinical isolate S023, Escherichia coli 1301
  MIC: 16 µg/mL (≈ 61.2 µM)
[8]; clinical isolate S024, Escherichia coli 1213
  MIC: 16 µg/mL (≈ 61.2 µM)
[8]; clinical isolate S025, Escherichia coli 1111
  MIC: 8 µg/mL (≈ 30.6 µM)
[8]; clinical isolate S026, Escherichia coli 1123
  MIC: 8 µg/mL (≈ 30.6 µM)
[8]; clinical isolate S034, Escherichia coli 1115
  MIC: 8 µg/mL (≈ 30.6 µM)
[8]; clinical isolate S035, Escherichia coli 1114
  MIC: 8 µg/mL (≈ 30.6 µM)
[8]; clinical isolate S036, Escherichia coli 1113
  MIC: 8 µg/mL (≈ 30.6 µM)
[8]; clinical isolate S037, Escherichia coli 1110
  MIC: 8 µg/mL (≈ 30.6 µM)
[8]; clinical isolate S038, Escherichia coli 1108
  MIC: 8 µg/mL (≈ 30.6 µM)
[8]; clinical isolate S039, Escherichia coli 1105
  MIC: 8 µg/mL (≈ 30.6 µM)
[8]; clinical isolate S040, Escherichia coli 230202
  MIC: 8 µg/mL (≈ 30.6 µM)
[8]; clinical isolate S041, Escherichia coli 230203
  MIC: 8 µg/mL (≈ 30.6 µM)
[8]; clinical isolate S042, Escherichia coli 230210
  MIC: 8 µg/mL (≈ 30.6 µM)
[8]; clinical isolate S043, Escherichia coli 0807
  MIC: 32 µg/mL (≈ 122 µM)
[8]; clinical isolate S044, Escherichia coli 1122
  MIC: 4 µg/mL (≈ 15.3 µM)
[8]; clinical isolate S045, Escherichia coli 0906
  MIC: 4 µg/mL (≈ 15.3 µM)
[8]; clinical isolate S046, Escherichia coli 0813
  MIC: 4 µg/mL (≈ 15.3 µM)
[8]; clinical isolate S047, Escherichia coli 230209
  MIC: 4 µg/mL (≈ 15.3 µM)
[8]; clinical isolate S048, Escherichia coli 230211
  MIC: 4 µg/mL (≈ 15.3 µM)
S. aureus (ATCC 29213) [9]
  MIC of SAR (S. aureus ATCC 29213 resistant strains): 64 µg/mL
ICR mice; 500 mg/kg oral
  mortality: none died
ICR mice; 1,000 mg/kg oral
  survival rate at 7 days: 80%
ICR mice; 4,000 mg/kg oral
  7-day survival rate: 10%
ICR mice; ICR mice, oral gavage, 7 days observation
  LD50: 2018.3 mg/kg
ICR mice; based on LD50
  acute toxicity classification: low-toxicity compound
[10]; High dose (50 mg/kg)
  AUC0-last: 459.58 ± 34.53 ng·h/mL
  AUC0-∞: 510.86 ± 46.62 ng·h/mL
  Cl/F: 983.0528 ± 117.355 mL/min/kg
  Cmax: 64.25 ± 1.98 ng/mL
  MRTlast: 5.85 ± 0.13 h
  T1/2λz: 8.57 ± 0.22 h
  Tmax: 1.33 ± 1.41 h
  Vd/F: 828.26908 ± 70.84029 L/kg
  λz: 0.085 ± 0.0016 h⁻¹
[10]; Low dose (10 mg/kg)
  AUC0-last: 318.05 ± 31.27 ng·h/mL
  AUC0-∞: 395.88 ± 42.41 ng·h/mL
  Cl/F: 422.673 ± 44.3642 mL/min/kg
  Cmax: 40.99 ± 2.37 ng/mL
  MRTlast: 7.58 ± 0.41 h
  T1/2λz: 10.32 ± 2.22 h
  Tmax: 1.33 ± 1.41 h
  Vd/F: 375.07455 ± 41.94437 L/kg
  λz: 0.068 ± 0.016 h⁻¹
[10]; at 24 h after drug administration
  drug concentration in the blood: ≤ 5 ng/mL
[10]; drug metabolism experiments
  absorption and elimination in vivo: poorly absorbed and quickly eliminated
